Experimental data published in patent US20240067693A1, “POLYPEPTIDES AND USES THEREOF” (MEDIMMUNE LIMITED, priority 2020, published 2024).
Numbered stars: 1 amine (or outer) side, 2 acyl side, 3 side chain; on linkers, the order of the positions; unused ones are H or OH. Bridge positions count the residues as written; N and C are the ends. Square brackets hold non-standard residues; d marks the D form. Side chains are listed from the residue outwards. Peptide text beside a SMILES is read from it. * marks the point of attachment. C18 diacid = O=C(O)CCCCCCCCCCCCCCCCC(=O)*; γGlu = O=C(O)[C@H](CCC(=O)[*:2])N[*:1]; Aib = CC(C)(N)C(=O)O

What was measured:
[1] = molecular target: T1, human amylin receptor (calcitonin receptor co-expressed with receptor activity modifying protein, RAMP3) (hAMYR3) (Homo sapiens, UniProt O60896+P30988); test: cAMP production in 1321N1 cells with stable recombinant expression of human amylin receptor (hAMYR3); format: cell-based; settings: for Ratio (selectivity hAMYR vs hCTR, ratio of EC50 values at the two receptors): EC50 hCTR / EC50 hAMYR3; for EC50: cAMP, 1321N1 cells, assay buffer with 0.1% BSA, read-out: EC50 (pM) hAMYR3
T1 construct: expressed in transfected cells
T1 sequence (P30988 25-474): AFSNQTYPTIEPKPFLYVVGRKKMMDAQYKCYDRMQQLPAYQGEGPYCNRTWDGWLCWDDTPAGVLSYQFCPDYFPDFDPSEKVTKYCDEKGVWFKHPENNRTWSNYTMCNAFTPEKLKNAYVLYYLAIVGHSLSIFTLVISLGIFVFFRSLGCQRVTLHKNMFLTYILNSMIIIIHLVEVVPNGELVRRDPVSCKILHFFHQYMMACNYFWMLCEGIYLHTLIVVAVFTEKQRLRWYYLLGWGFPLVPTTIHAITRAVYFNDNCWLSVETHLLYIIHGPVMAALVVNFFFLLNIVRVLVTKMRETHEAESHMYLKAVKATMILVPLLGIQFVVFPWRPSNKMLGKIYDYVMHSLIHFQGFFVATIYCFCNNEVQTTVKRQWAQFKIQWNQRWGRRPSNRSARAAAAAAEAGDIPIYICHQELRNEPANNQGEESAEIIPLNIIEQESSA
T1 sequence (O60896 24-148 partner): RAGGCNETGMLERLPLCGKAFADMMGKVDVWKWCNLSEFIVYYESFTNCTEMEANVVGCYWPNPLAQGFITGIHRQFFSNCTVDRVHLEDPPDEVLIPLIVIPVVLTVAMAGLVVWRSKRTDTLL
Summary of the method: (§1)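 EC50 values come from 4-parameter logistic fits of HTRF cAMP signal, normalised to maximal calcitonin or amylin effect. Peptides were tested in duplicate for 30 min at RT in IBMX-containing (0.5 mM) BSA/HEPES buffer pH 7.4 on stable 1321N1 (human CTR, AMYR3) or HEK (rat CTR, AMYR3) lines.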

[2] = molecular target: T2, human calcitonin receptor (hCTR) (Homo sapiens, UniProt P30988); test: cAMP production in 1321N1 cells with stable recombinant expression of human calcitonin receptor (hCTR); format: cell-based; settings: cAMP, 1321N1 cells, assay buffer with 0.1% BSA; read-out: EC50 (pM) hCTR
T2 construct: expressed in transfected cells
T2 sequence (P30988 25-474): T1 sequence (P30988 25-474)
Summary of the method: as §1

Row | SMILES | Ratio (selectivity hAMYR vs hCTR, ratio of EC50 values at the two receptors) [1] | EC50 [1] | EC50 [2]
1 | CC[C@H](C)[C@H](NC(=O)[C@@H]1CCCN1C(=O)CNC(=O)[C@H](Cc1ccccc1)NC(=O)[C@H](CC(N)=O)NC(=O)C(C)(C)NC(=O)[C@H](CO)NC(=O)[C@H](CO)NC(=O)[C@H](Cc1c[nH]cn1)NC(=O)[C@@H](NC(=O)[C@H](CC(C)C)NC(=O)[C@H](Cc1ccccc1)NC(=O)[C@H](CC(N)=O)NC(=O)[C@H](C)NC(=O)[C@H](CC(C)C)NC(=O)[C@H](CCCNC(=N)N)NC(=O)[C@H](CCC(N)=O)NC(=O)[C@@H](NC(=O)[C@H](C)NC(=O)[C@@H]1CSSC[C@H](NC(=O)[C@@H](N)CCCCNC(=O)CC[C@H](NC(=O)CCCCCCCCCCCCCCCCC(=O)O)C(=O)O)C(=O)N[C@@H](CC(N)=O)C(=O)N[C@@H]([C@@H](C)O)C(=O)N[C@@H](C)C(=O)N[C@@H]([C@@H](C)O)C(=O)N1)[C@@H](C)O)C(C)C)C(=O)N[C@H](CC(C)C)C(=O)N1CCC[C@H]1C(=O)N1CCC[C@H]1C(=O)N[C@H](C(=O)N[C@@H](CC(N)=O)C(=O)N[C@H](C(=O)NCC(=O)N[C@@H](CO)C(=O)N[C@@H](CC(N)=O)C(=O)N[C@H](C(=O)N[C@@H](Cc1ccc(O)cc1)C(N)=O)[C@@H](C)O)C(C)C)[C@@H](C)O [Peptide 59, K(γE-C18diacid)[CNTATC]ATQRLANFLVHSS(Aib)NFGPI(dL)PPTNVGSNTY-amide] (H-K([γGlu-C18 diacid])CNTATCATQRLANFLVHSS[Aib]NFGPI[dL]PPTNVGSNTY-NH2; disulfide 2-7; N-terminus assumed) | 5 | 157 pM | 809 pM
2 | CC[C@H](C)[C@H](NC(=O)[C@@H]1CCCN1C(=O)CNC(=O)[C@H](Cc1ccccc1)NC(=O)[C@H](CC(N)=O)NC(=O)C(C)(C)NC(=O)[C@H](CO)NC(=O)[C@H](CO)NC(=O)[C@H](Cc1c[nH]cn1)NC(=O)[C@@H](NC(=O)[C@H](CC(C)C)NC(=O)[C@H](Cc1ccccc1)NC(=O)[C@H](CC(N)=O)NC(=O)[C@H](C)NC(=O)[C@H](CC(C)C)NC(=O)[C@H](CCCNC(=N)N)NC(=O)[C@H](CCC(N)=O)NC(=O)[C@@H](NC(=O)[C@H](C)NC(=O)[C@@H]1CSSC[C@H](NC(=O)[C@@H](N)CCCCNC(=O)CC[C@H](NC(=O)CCCCCCCCCCCCCCCCC(=O)O)C(=O)O)C(=O)N[C@@H](CC(N)=O)C(=O)N[C@@H]([C@@H](C)O)C(=O)N[C@@H](C)C(=O)N[C@@H]([C@@H](C)O)C(=O)N1)[C@@H](C)O)C(C)C)C(=O)N[C@@H](CC(C)C)C(=O)N1CCC[C@@H]1C(=O)N1CCC[C@H]1C(=O)N[C@H](C(=O)N[C@@H](CC(N)=O)C(=O)N[C@H](C(=O)NCC(=O)N[C@@H](CO)C(=O)N[C@@H](CC(N)=O)C(=O)N[C@H](C(=O)N[C@@H](Cc1ccc(O)cc1)C(N)=O)[C@@H](C)O)C(C)C)[C@@H](C)O [Peptide 60, K(γE-C18diacid)[CNTATC]ATQRLANFLVHSS(Aib)NFGPIL(dP)PTNVGSNTY-amide] (H-K([γGlu-C18 diacid])CNTATCATQRLANFLVHSS[Aib]NFGPIL[dP]PTNVGSNTY-NH2; disulfide 2-7; N-terminus assumed) | 11 | 96 pM | 1030 pM
3 | CC[C@@H](C)[C@@H](NC(=O)[C@@H]1CCCN1C(=O)CNC(=O)[C@H](Cc1ccccc1)NC(=O)[C@H](CC(N)=O)NC(=O)C(C)(C)NC(=O)[C@H](CO)NC(=O)[C@H](CO)NC(=O)[C@H](Cc1c[nH]cn1)NC(=O)[C@@H](NC(=O)[C@H](CC(C)C)NC(=O)[C@H](Cc1ccccc1)NC(=O)[C@H](CC(N)=O)NC(=O)[C@H](C)NC(=O)[C@H](CC(C)C)NC(=O)[C@H](CCCNC(=N)N)NC(=O)[C@H](CCC(N)=O)NC(=O)[C@@H](NC(=O)[C@H](C)NC(=O)[C@@H]1CSSC[C@H](NC(=O)[C@@H](N)CCCCNC(=O)CC[C@H](NC(=O)CCCCCCCCCCCCCCCCC(=O)O)C(=O)O)C(=O)N[C@@H](CC(N)=O)C(=O)N[C@@H]([C@@H](C)O)C(=O)N[C@@H](C)C(=O)N[C@@H]([C@@H](C)O)C(=O)N1)[C@@H](C)O)C(C)C)C(=O)N[C@@H](CC(C)C)C(=O)N1CCC[C@H]1C(=O)N1CCC[C@H]1C(=O)N[C@H](C(=O)N[C@@H](CC(N)=O)C(=O)N[C@H](C(=O)NCC(=O)N[C@@H](CO)C(=O)N[C@@H](CC(N)=O)C(=O)N[C@H](C(=O)N[C@@H](Cc1ccc(O)cc1)C(N)=O)[C@@H](C)O)C(C)C)[C@@H](C)O [Peptide 61, K(γE-C18diacid)[CNTATC]ATQRLANFLVHSS(Aib)NFGP(dl)LPPTNVGSNTY-amide] (H-K([γGlu-C18 diacid])CNTATCATQRLANFLVHSS[Aib]NFGP[dI]LPPTNVGSNTY-NH2; disulfide 2-7; N-terminus assumed) | 7 | 99 pM | 654 pM
4 | CC[C@H](C)[C@H](NC(=O)[C@@H]1CCCN1C(=O)CNC(=O)[C@H](Cc1ccccc1)NC(=O)[C@H](CC(N)=O)NC(=O)C(C)(C)NC(=O)[C@H](CO)NC(=O)[C@H](CO)NC(=O)[C@H](Cc1c[nH]cn1)NC(=O)[C@@H](NC(=O)[C@@H](CC(C)C)NC(=O)[C@H](Cc1ccccc1)NC(=O)[C@H](CC(N)=O)NC(=O)[C@H](C)NC(=O)[C@H](CC(C)C)NC(=O)[C@H](CCCNC(=N)N)NC(=O)[C@H](CCC(N)=O)NC(=O)[C@@H](NC(=O)[C@H](C)NC(=O)[C@@H]1CSSC[C@H](NC(=O)[C@@H](N)CCCCNC(=O)CC[C@H](NC(=O)CCCCCCCCCCCCCCCCC(=O)O)C(=O)O)C(=O)N[C@@H](CC(N)=O)C(=O)N[C@@H]([C@@H](C)O)C(=O)N[C@@H](C)C(=O)N[C@@H]([C@@H](C)O)C(=O)N1)[C@@H](C)O)C(C)C)C(=O)N[C@@H](CC(C)C)C(=O)N1CCC[C@H]1C(=O)N1CCC[C@H]1C(=O)N[C@H](C(=O)N[C@@H](CC(N)=O)C(=O)N[C@H](C(=O)NCC(=O)N[C@@H](CO)C(=O)N[C@@H](CC(N)=O)C(=O)N[C@H](C(=O)N[C@@H](Cc1ccc(O)cc1)C(N)=O)[C@@H](C)O)C(C)C)[C@@H](C)O [Peptide 62, K(γE-C18diacid)[CNTATC]ATQRLANF(dL)VHSS(Aib)NFGPILPPTNVGSNTY-amide] (H-K([γGlu-C18 diacid])CNTATCATQRLANF[dL]VHSS[Aib]NFGPILPPTNVGSNTY-NH2; disulfide 2-7) | 43 | 167 pM | 7250 pM
